{"source": "patent US9144251B2", "about": "“High-potency sweetener composition with mineral and compositions sweetened therewith” (The Coca-Cola Company, priority 2005, dated 2015)", "experiment": "Sensory evaluation of sweetness linger and sugar-like taste by a panel of experts (Example Sets G and H)", "format": "in vivo", "set-up": "key: 0=no sweetness linger; 1 very slight sweetness linger; 2=slight sweetness linger; 3 moderate sweetness linger; 4=moderately high sweetness linger; 5=high sweetness linger", "settings": "scale 0-5; for Sweetness Linger rating (defined anchors of the scale): sucrose, 500 ppm of REBA control sample", "protocol": "Sensory evaluation of the samples prepared in Example Set G was carried out under the following protocol, similar to that described hereinabove. In this test protocol, none of the samples were swallowed. All samples were expectorated and the mouth was rinsed with water after the tasting. Immediately upon sensing maximal sweetness, the sample was expectorated, the mouth was rinsed with water and the rate of sweetness decay (“Sweetness Linger”) was measured, where attention was focused on the sweetness 3-4 min after the water rinse. After sample tasting was complete, a salty oyster cracker was chewed followed by a water rinse, and at least 5 minutes followed before tasting the next sample. The sweetness linger was rated by a panel of experts in the sensory evaluation of foods and beverages using the following scale: 0=no sweetness linger, 1 very slight sweetness linger, 2=slight sweetness linger, 3 moderate sweetness linger, 4=moderately high sweetness linger, 5=high sweetness linger.\nThe “Sweetness Linger” rating for sucrose observed by this protocol is defined as 0. The Sweetness Linger of a 500 ppm of REBA control sample is defined as 5. Experimental samples were tasted by the same protocol, always allowing sufficient time between samples to ensure re-equilibration of the sensory system. Re-tasting of control samples during the course of the experiment was allowed and encouraged.\nThe comparison taste test was performed between two controls and addition of sweet taste improving additive on the onset and/or sweetness linger.\nSweet taste improving compositions were combined with a REBA solution to determine their effect on sweetness linger. Screening of the initial sample, or further dilutions, allowed identification of concentrations which were just above-threshold, herein defined as “near-threshold concentrations.” The near-threshold additive concentrations, a 6- to 100-fold higher higher additive concentration (depending on the off-taste intensity), and a mid-level additive concentration (halfway between the near-threshold and higher additive concentration) were evaluated to determine the effect on sweetness linger of a REBA solution.\nFormulations of a 500 ppm REBA in a phosphoric acid solution (75%) at a pH of 2.5 with phosphoric acid or a pH of 3.1 with citric acid and potassium citrate were prepared prior to the addition of the additives at the three levels of concentration.\nSensory evaluation using the protocol described in Example Set G then was used to evaluate the sweetness linger of the REBA solutions.", "data": [{"molecule": "OC[C@H]1O[C@@](CO)(O[C@H]2O[C@H](CO)[C@@H](O)[C@H](O)[C@H]2O)[C@@H](O)[C@@H]1O", "note": "[sugar, sucrose]", "values": [{"measurement": "sweetness linger rating, control sample", "setting": "8 g of sugar in 100 ml of citrate buffer", "value": 0}, {"measurement": "sweetness linger rating, control sample", "setting": "10 g of sugar in 100 ml carbon treated water, phosphoric acid (75%) to pH 2.4-2.5", "value": 0}, {"measurement": "Sweetness Linger rating (defined anchors of the scale)", "value": 0}]}, {"molecule": "rebaudioside A", "values": [{"measurement": "sweetness linger rating, control sample", "setting": "400 ppm REBA in citric acid/potassium citrate composition equivalent to diet lemon-lime beverage, no additive", "value": 5}, {"measurement": "sweetness linger rating, control sample", "setting": "500 ppm in carbon-treated water, phosphoric acid (75%) to pH 2.4-2.5, no additive", "value": 5}, {"measurement": "Sweetness Linger rating (defined anchors of the scale)", "value": 5}]}]}
